Measurements published in patent US9144595B2, “APLs for treating arthritis” (University of Tennessee Research Foundation, priority 2009, dated 2015).
Values joined by “and” are separate entries in the source; they are usually repeats but may differ in a detail not shown here. Equal values may be shown once. “Also recorded” adds a separate entry of the source.

Legend:
DR1 Transgenic mice [1] = assay: Acute toxicity study of HC Peptide 1 in DR1 transgenic mice; assay type: in vivo, mouse
DR1 Transgenic mice [2] = assay: Effect of A12 on CIA in DR1 Transgenic mice (CII plus A12; intravenous A12 after CII-immunization); assay type: in vivo, mouse; details: for Incidence: arthritis incidence
Experimental: Assuming that CII263-270 was key to developing immunity to the intact CII molecule, a number of analog peptides where amino acids within this small segment were substituted with those found in the corresponding sites of nonarthritogenic type I collagen were prepared and tested. […] The APL A12 developed for this study has the following amino acid sequence: LGPKGQTGEBG[IAGNKGDQGPK]GEBGPA (SEQ ID NO: 3) where B=hydroxproline. The core determinant of human CII263-270 is bracketed. The underlined residues are those substituted to produce APL A12. The residues amino terminal and carboxy terminal to the core determinant is from the normal human CII sequence.

DR1 Transgenic mice [3] = assay: Acute toxicity study of HC Peptide 1 in DR1 transgenic mice; assay type: in vivo, mouse; details: for Weight of Mice / Weight of Livers / Weight of Spleens: individual mice, HC Peptide 1 (100 μg) Fed; for Weight of Livers / Weight of Spleens: at sacrifice
Experimental: Eight DR1 transgenic mice (C57 BL/10 containing a human transgene for DR1) were studied in these acute toxicity studies. The four female litter mates were nine weeks old at the time the studies were initiated. Two female mice and two male mice were randomly assigned to the control group and two female and two male mice were randomly assigned to be treated with HC Peptide 1. Mice were gavaged once daily for seven days with 100 μl IV saline containing 100 μg HC Peptide1. Mice were weighed before treatment and every two days. Mice were examined daily for general healthy appearance, glossy coat, ruffling of hair, lethargy, ad lib behavior, shivering or vigor. At sacrifice on day 7, blood was collected for complete blood count and chemistries were performed by the Clinical Pathology Services, Charles River Laboratories, 251 Ballardvale Street, Wilmington, Mass. 01887. Food and water consumption were monitored in each cage. Liver and spleen were weighed at sacrifice of each mouse. Sections of liver, spleen, kidney, heart, lung, stomach, and small and large intestine, were placed in 10% formalin and processed for routine H and E sections by the Histology Laboratory at the Memphis VAMC. Mice were housed in an IACUC approved facility with 12 hours light and 12 hours darkness.
Changes in body weight over the six days mice were gavaged with 100× the human HC Peptide 1 dose were similar to mice gavaged with IV saline (See Table IX). Water and food consumption were similar between HC Peptide 1 treated and mice gavaged with IV saline (Table X). Upon sacrifice at day 7, the weight of livers and spleens were similar between mice gavaged with 100× the human dose of HC Peptide 1 and mice gavaged with IV saline (See Table XI). The complete blood counts (CBC) after 6 days gavage of DRB1*0401 transgenic mice with 100× the human HC Peptide 1 dose were similar to litter mates gavaged with IV saline. Plasma chemistries were similar in the […] transgenic mice gavaged with 100× the human dose of HC Peptide 1 compared to litter mates gavaged with IV saline.

RA CD4+ T cells = assay: Intracellular IFNγ and IL-17 in CD4+ T cells of CII-stimulated RA PBMC (flow cytometry); assay type: cell-based, human; details: A12 10 μg/ml co-incubated with CII 50 μg/ml, 5 days; one RA patient; FIG. 2
Text: We assessed the effect of APL A12 added to cultures of RA PBMC stimulated with α1(II) on CD4^+ T cells expression of IFNγ and IL-17 as shown in FIG. 2.
The flow use an IFNγ scale on y-axis 295 and IL-17 on x-axis 290, 291, 292, 293, 294 (log scale). The results of the flow are shown for Control 210 including IFNγ+IL-17 flow 270 and IFNγ Control flow 285. The results of the flow are shown for CII+A12 220 including IFNγ+IL-17 flow 265 and IFNγ Control flow 280. The results of the flow are shown for CII 230 including IFNγ+IL-17 flow 260 and IFNγ Control flow 275. Columns 240, 250 represent IFNγ+IL-17 flow and IFNγ Control flow, respectively. Peripheral blood lymphocytes were placed in culture (2×10^6/well, 24 well plate) and stimulated with either CII alone (50 μg/ml), CII+A12 peptide (10 μg/ml), or PBS for 5 days. […] Cells were then collected and analyzed by flow cytometry using fluorochrome-labeled antibodies specific for CD4, CD8, CD69, IL-17 and IFNγ. […] Data are based on a minimum of 75,000 events analyzed. The IFNγ Controls (right panels) are based on the fluorescence minus one (FMO) approach whereby the antibody of IFNγ is omitted from these samples to make sure that no fluorochrome was spilling over into the IFNγ detector.

[4] = Cage 1 Male (two mice), Days 1-2
[5] = Cage 1 Male (two mice), Days 3-4
[6] = Cage 1 Male (two mice), Days 5-6
[7] = Cage 1 Male (two mice), sum of Days 1-6 (unlabelled line)
[8] = Cage 3 Female (two mice), Days 1-2
[9] = Cage 3 Female (two mice), Days 3-4
[10] = Cage 3 Female (two mice), Days 5-6
[11] = Cage 3 Female (two mice), sum of Days 1-6 (unlabelled line)

Sequence: LGPKGQTGEBGIAGAKGDQGPKGEBGPA [APL A12]
- complete blood counts (CBC) (DR1 Transgenic mice [1]; after 6 days gavage with 100× the human dose vs IV saline): similar
- Histologic assessment of internal organs (livers, spleens, kidneys, hearts, lungs) (DR1 Transgenic mice [1]; gavaged for six days with 100× human dose vs IV saline, listed as HC Peptide 1): no difference; also recorded: did not reveal abnormalities
- clinical signs of illness, changes in complete blood counts or liver and renal chemistries (DR1 Transgenic mice [1]; oral, 100× the proposed human dose daily for six days): not associated
- Changes in body weight (DR1 Transgenic mice [1]; over the six days gavaged with 100× the human dose, vs IV saline): similar
- Antibodies to CII (DR1 Transgenic mice [2]; 0.01 mg (so in the source) i.v.): 33 ± 11
- Antibodies to CII (DR1 Transgenic mice [2]; 0.5 mg total i.v.): 24 ± 7 (p ≦ 0.025)
- Antibodies to CII (DR1 Transgenic mice [2]; 1 mg total i.v.): 22 ± 9 (p ≦ 0.025)
- antibody production to CII (DR1 Transgenic mice [2]; DR1-Transgenic mice): significantly decreased
- Incidence (DR1 Transgenic mice [2]; 0.01 mg (so in the source) i.v. on days 10, 12, 14 after CII-immunization): 5/10
- Incidence (DR1 Transgenic mice [2]; 0.5 mg total i.v. on days 10, 12, 14 after CII-immunization): 3/10
- Incidence (DR1 Transgenic mice [2]; 1 mg total i.v. on days 10, 12, 14 after CII-immunization): 1/10 (p = 0.01)
- immunity to CII and arthritis (DR1 Transgenic mice [2]; high-responder DR1 mice): profoundly suppress
- incidence of arthritis and number of arthritic limbs (DR1 Transgenic mice [2]; mice immunized with CII plus A12): dose-related decrease
- Plasma chemistries (DR1 Transgenic mice [3]; 100× the human dose vs IV saline): similar
- general appearance or behavior (DR1 Transgenic mice [3]; 100× the proposed highest human dose by gavage, compared to littermates gavaged with IV saline): no differences
- Chow Consumed (DR1 Transgenic mice [3]; [4]): 13.3 GMS
- Water Consumed (DR1 Transgenic mice [3]; [4]): 15 MI
- Chow Consumed (DR1 Transgenic mice [3]; [5]): 10.5 GMS
- Water Consumed (DR1 Transgenic mice [3]; [5]): 10 MI
- Chow Consumed (DR1 Transgenic mice [3]; [6]): 14.4 GMS
- Water Consumed (DR1 Transgenic mice [3]; [6]): 15 MI
- Chow Consumed (DR1 Transgenic mice [3]; [7]): 38.2 GMS
- Water Consumed (DR1 Transgenic mice [3]; [7]): 40 MI
- Chow Consumed (DR1 Transgenic mice [3]; [8]): 15.7 GMS
- Water Consumed (DR1 Transgenic mice [3]; [8]): 12.5 MI
- Chow Consumed (DR1 Transgenic mice [3]; [9]): 14.2 GMS
- Water Consumed (DR1 Transgenic mice [3]; [9]): 9.5 MI
- Chow Consumed (DR1 Transgenic mice [3]; [10]): 15.3 GMS
- Water Consumed (DR1 Transgenic mice [3]; [10]): 13 MI
- Chow Consumed (DR1 Transgenic mice [3]; [11]): 45.2 GMS
- Water Consumed (DR1 Transgenic mice [3]; [11]): 35 MI
- Weight of Mice (DR1 Transgenic mice [3]; Day 2, female mice): 21.6 GMS and 19.4 GMS
- Weight of Mice (DR1 Transgenic mice [3]; Day 2, male mice): 22.4 GMS and 21.0 GMS
- Weight of Mice (DR1 Transgenic mice [3]; Day 4, female mice): 21.0 GMS and 18.6 GMS
- Weight of Mice (DR1 Transgenic mice [3]; Day 4, male mice): 21.6 GMS and 20.3 GMS
- Weight of Mice (DR1 Transgenic mice [3]; Day 6, female mice): 21.9 GMS and 19.3 GMS
- Weight of Mice (DR1 Transgenic mice [3]; Day 6, male mice): 22.7 GMS and 20.9 GMS
- Weight of Mice (DR1 Transgenic mice [3]; Time 0, female mice): 21.6 GMS and 18.7 GMS
- Weight of Mice (DR1 Transgenic mice [3]; Time 0, male mice): 22.4 GMS and 20.8 GMS
- Weight of Livers (DR1 Transgenic mice [3]; female mice): 0.99 GMS and 0.87 GMS
- Weight of Spleens (DR1 Transgenic mice [3]; female mice): 0.065 GMS and 0.07 GMS
- Weight of Livers (DR1 Transgenic mice [3]; male mice): 1.14 GMS and 0.9 GMS
- Weight of Spleens (DR1 Transgenic mice [3]; male mice): 0.09 GMS and 0.06 GMS
- weight of livers and spleens (DR1 Transgenic mice [3]; sacrifice at day 7, 100× the human dose vs IV saline): similar
- Water and food consumption (DR1 Transgenic mice [3]; vs mice gavaged with IV saline): similar
- decrease in the number of IFNγ-producing T cells (RA CD4+ T cells): 75%
- reduction in IL-17 producing T cells (RA CD4+ T cells): 42%
